From US20240254118A1, “PRMT5 INHIBITORS AND USES THEREOF” (Gilead Sciences, Inc., priority 2022, published 2024) come the findings set out here.

Each structure is given as a SMILES string. pEC50: −log10 of the molar value.

Experiment [1] concerns HCT116 MTAP-deleted cells. Put plainly: Cell viability assay (CellTiter-Glo, 7 days), HCT116 MTAP-deleted. Conditions: Homo sapiens, HCT-116, 168 h. (In general: ATP-based viability assays read luminescence as a measure of living cells.)
Experiment [2] concerns SDMA signal (PRMT5 inhibition) in HCT116 MTAP-deleted cells. Put plainly: Symmetric di-methyl arginine image-based high content screen assay (SDMA assay), HCT116 MTAP-deleted. It is filed as cell-based. To be noted: SDMA assay; for pEC50: Homo sapiens, HCT-116, 72 h, 3 days of treatment, cell line not given, taken as HCT116 MTAP-deleted, read-out: EC50 (SDMA assay). Summed up: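 HCT116 MTAP-deleted cells treated with compound until Day 3, then formalin-fixed, permeabilized and immunostained for SDMA, with DAPI nuclear counterstain. Imaged by high-content microscopy; SDMA read-out is mean Alexa 488 intensity per DAPI-defined cell, reflecting PRMT5 inhibition.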

Where [3] appears, read: taken as HCT116 WT versus MTAP-deleted.
Setting [4] is: taken as HCT116 WT vs MTAP-deleted.

As a reminder, the CC50 is the concentration giving 50% cytotoxicity. Lower therefore signals greater toxicity to the cells. For orientation: pEC50 means the EC50 on a negative log10 scale, so that one unit is a factor of ten. For `CN(C(=O)C1CC1)N(Cc1ccc(C(F)(F)F)cn1)C(=O)c1cc2c(cc1Cl)nc(N)c1cnn(C)c12` [Example 304, 4-amino-7-chloro-N′-(cyclopropanecarbonyl)-N′,1-dimethyl-N-((5-(trifluoromethyl)pyridin-2-yl)methyl)-1H-pyrazolo[4,3-c]quinoline-8-carbohydrazide], in experiment [1], the CC50 is less than 100 nM. Also, in experiment [2], the pEC50 is 8.30 to 9.00. Moreover, the “EC50 selectivity (SDMA assay)” value in experiment [2] (setting [3]) turned out to be 15.
As for `CN(C(=O)C(C)(F)F)N(Cc1ccc(C(F)(F)F)cn1)C(=O)c1ccc2nc(N)c3cnn(C)c3c2c1` [Example 189, 4-amino-N′-(2,2-difluoropropanoyl)-N′,1-dimethyl-N-[[5-(trifluoromethyl)-2-pyridyl]methyl]pyrazolo[4,3-c]quinoline-8-carbohydrazide], in experiment [1], the cytotoxic concentration (CC50) was less than 100 nM. Also, the pEC50 in experiment [2] is greater than 9.00. Moreover, in experiment [2] (setting [3]), the “EC50 selectivity (SDMA assay)” value is on record as 13.
The compound `CC(=O)N(C)N(Cc1nc2cc(Cl)ccc2n1C)C(=O)c1ccc2nc(N)c3cnn(C)c3c2c1` [Example 209, N′-Acetyl-4-amino-N-[(5-chloro-1-methyl-benzimidazol-2-yl)methyl]-N′,1-dimethyl-pyrazolo[4,3-c]quinoline-8-carbohydrazide] showed a CC50 in experiment [1] of less than 100 nM. For the same compound, the pEC50 in experiment [2] was greater than 9.00. Besides, in experiment [2] (setting [3]), the “EC50 selectivity (SDMA assay)” value was 228.
On the same counts, the results for `Cn1ncc2c(N)nc3ccc(C(=O)N(Cc4cn5cc(F)ccc5n4)N4CCCCC4=O)cc3c21` [Example 90, 4-Amino-N-[(6-fluoroimidazo[1,2-a]pyridin-2-yl)methyl]-1-methyl-N-(2-oxo-1-piperidyl)pyrazolo[4,3-c]quinoline-8-carboxamide] are less than 100 nM, 8.30 to 9.00 and 53.
As to `CCN(C)N(Cc1ccc(C(F)(F)F)cn1)C(=O)c1cc2c(cc1F)nc(N)c1cnn(C)c12` [Example 456, 4-amino-N′-ethyl-7-fluoro-N′,1-dimethyl-N-((5-(trifluoromethyl)pyridin-2-yl)methyl)-1H-pyrazolo[4,3-c]quinoline-8-carbohydrazide], in experiment [1], the CC50 is less than 100 nM. The negative-log EC50 (pEC50) in experiment [2] was greater than 9.00. Further, the “EC50 selectivity (SDMA assay)” value in experiment [2] (setting [4]) is 25.
In the case of `Nc1nc2ccc(C(=O)N(Cc3ccc(C(F)(F)F)cn3)Nc3ncccn3)cc2c2ccccc12` [Example 76, 6-amino-N′-(pyrimidin-2-yl)-N-((5-(trifluoromethyl)pyridin-2-yl)methyl)phenanthridine-2-carbohydrazide], the CC50 in experiment [1] was in the range of 100 to 1000 nM. In addition, the pEC50 in experiment [2] was 8.30 to 9.00. Further, the “EC50 selectivity (SDMA assay)” value in experiment [2] (setting [3]) is on record as 204.
The like results for `COc1ccc(CN(C(=O)c2ccc3nc(N)c4cnn(C)c4c3c2)N(C)C(C)=O)c(F)c1` [Example 16, N′-acetyl-4-amino-N-(2-fluoro-4-methoxybenzyl)-N′,1-dimethyl-1H-pyrazolo[4,3-c]quinoline-8-carbohydrazide] were, in that order, less than 100 nM, greater than 9.00 and 306.
On the same counts, the results for `Cn1ncc2c(N)nc3ccc(C(=O)N(Cc4ccc(C(F)(F)F)cn4)N4CC5(CC(F)(F)C5)OC4=O)cc3c21` [Example 345, 4-amino-N-(2,2-difluoro-6-oxo-5-oxa-7-azaspiro[3.4]octan-7-yl)-1-methyl-N-((5-(trifluoromethyl)pyridin-2-yl)methyl)-1H-pyrazolo[4,3-c]quinoline-8-carboxamide] are 100 to 1000 nM, 8.30 to 9.00 and 152.
On the same counts, the results for `Cn1ncc2c(N)nc3ccc(C(=O)N(Cc4ccc(C(F)(F)F)cc4)N4CCCOC4=O)cc3c21` [Example 3, 4-amino-1-methyl-N-(2-oxo-1,3-oxazinan-3-yl)-N-(4-(trifluoromethyl)benzyl)-1H-pyrazolo[4,3-c]quinoline-8-carboxamide] are less than 100 nM, greater than 9.00 and 123.
`COC12CC(C(=O)N(C)N(Cc3ccc(C(F)(F)F)cn3)C(=O)c3ccc4nc(N)c5cnn(C)c5c4c3)(C1)C2` [Example 187, 4-amino-N′-(3-methoxybicyclo[1.1.1]pentane-1-carbonyl)-N′,1-dimethyl-N-[[5-(trifluoromethyl)-2-pyridyl]methyl]pyrazolo[4,3-c]quinoline-8-carbohydrazide] registered a 50% cytotoxic concentration (CC50) in experiment [1] of less than 100 nM. In experiment [2], the pEC50 is 8.30 to 9.00. The “EC50 selectivity (SDMA assay)” value in experiment [2] (setting [3]) is 50.
On the same counts, the results for `CN(C(=O)OCC(F)F)N(Cc1ccc(C(F)(F)F)cn1)C(=O)c1ccc2nc(N)c3cnn(C)c3c2c1` [Example 110, 2,2-difluoroethyl N-[(4-amino-1-methyl-pyrazolo[4,3-c]quinoline-8-carbonyl)-[[5-(trifluoromethyl)-2-pyridyl]methyl]amino]-N-methyl-carbamate] are less than 100 nM, greater than 9.00 and 11.
Regarding `CN1CCN(N(Cc2ccc(C(F)(F)F)cn2)C(=O)c2cc3c(cc2Cl)nc(N)c2cnn(C)c23)C1=O` [Example 84, 4-Amino-7-chloro-1-methyl-N-(3-methyl-2-oxo-imidazolidin-1-yl)-N-[[5-(trifluoromethyl)-2-pyridyl]methyl]pyrazolo[4,3-c]quinoline-8-carboxamide], in experiment [1], the 50% cytotoxic concentration (CC50) is less than 100 nM. For the same compound, in experiment [2], the pEC50 is 8.30 to 9.00. Also, the “EC50 selectivity (SDMA assay)” value in experiment [2] (setting [3]) is on record as 26.
For the compound `CN(C(=O)C1CC1)N(Cc1ccc(C(F)(F)F)cc1F)C(=O)c1ccc2nc(N)c3cnn(C)c3c2c1` [Example 344, 4-amino-N′-(cyclopropanecarbonyl)-N-(2-fluoro-4-(trifluoromethyl)benzyl)-N′,1-dimethyl-1H-pyrazolo[4,3-c]quinoline-8-carbohydrazide], in experiment [1], the CC50 is less than 100 nM. Moreover, the negative-log EC50 (pEC50) in experiment [2] was greater than 9.00. In experiment [2] (setting [3]), the “EC50 selectivity (SDMA assay)” value turned out to be 48.
In turn, `CN(C(=O)C1CC1)N(Cc1cccc2c1OC(F)(F)O2)C(=O)c1cc2c(cc1F)nc(N)c1cnn(C)c12` [Example 303, 4-amino-N′-(cyclopropanecarbonyl)-N-((2,2-difluorobenzo[d][1,3]dioxol-4-yl)methyl)-7-fluoro-N′,1-dimethyl-1H-pyrazolo[4,3-c]quinoline-8-carbohydrazide] gave a CC50 in experiment [1] of less than 100 nM. In addition, in experiment [2], the negative logarithm of the EC50 (pEC50) is greater than 9.00. For the same compound, the “EC50 selectivity (SDMA assay)” value in experiment [2] (setting [3]) is recorded as 58.
Consider `CN(Cc1ccccn1)N(Cc1ccc(C(F)(F)F)cn1)C(=O)c1cc2c(cc1F)nc(N)c1cnn(C)c12` [Example 449, 4-amino-7-fluoro-N′,1-dimethyl-N′-(pyridin-2-ylmethyl)-N-((5-(trifluoromethyl)pyridin-2-yl)methyl)-1H-pyrazolo[4,3-c]quinoline-8-carbohydrazide], for which the cytotoxic concentration (CC50) in experiment [1] was less than 100 nM. In addition, in experiment [2], the negative-log EC50 (pEC50) is 8.30 to 9.00. In experiment [2] (setting [4]), the “EC50 selectivity (SDMA assay)” value is 62.
The like results for `CC(=O)N(C)N(Cc1sc2ccccc2c1Cl)C(=O)c1ccc2nc(N)c3cnn(C)c3c2c1` [Example 442, N′-acetyl-4-amino-N-((3-chlorobenzo[b]thiophen-2-yl)methyl)-N′,1-dimethyl-1H-pyrazolo[4,3-c]quinoline-8-carbohydrazide] were, in that order, less than 100 nM, greater than 9.00 and 163.
